According to PMC11132046, “A Natural Peptide from A Traditional Chinese Medicine Has the Potential to Treat Chronic Atrophic Gastritis by Activating Gastric Stem Cells” (Advanced Science, 2024):
“Also recorded” adds a separate entry of the source. Where no end group is shown, it is not given here.

Assays:
[1] = Retention / stability in murine stomach (P5-fluorescein); format: in vivo
[2] = system: GES-1 cells; assay: Cell viability assay (CCK-8); format: cell-based, human
Experimental: Cell culture and cell viability assay: Human gastric normal epithelial cell line GES-1 was cultured in DMEM medium containing 10% fetal bovine serum and 1% pencillin-streptomycin at 37℃ with 5% CO2. For cell viability assay, Cell Counting Kit-8 (CCK-8) was purchased from KeyGEN BioTECH Corp., Ltd. The cells were cultured in 96-wells plate and PEEPA-P5 was added in each well with different concentrations. After 3 days, substrate tetrazolium salt was added to each sample and incubated at 37℃ for 2 hrs and the absorbance at 450 nm was measured using BioTeck. […]
(§1) TRIzol reagent. cDNA was reverse transcribed from 500 ng RNA by PrimeScript RT […]
(§2) Light Cycler 480. The sequences of primers are as follows: Gastrin-F: 5’- GGACAGGGACCAATGAGG-3’; Gastrin-R: 5’-
(§3) -3’; SST-F: 5’-ACCGGGAAAAGGAACTGG-3’;
(§4) SST-R: 5’-TTGCTGGGTTCGAGTTGGC-3’; Muc5ac-F: 5’-
(§5) AGCCTAGCCACCACCTTAG-3’; TFF1-F: 5’-[…]-3’;
(§6) TFF1-R: 5’-[…]-3’; TFF2-F: 5’- TGCTCTGGTAGAGGGCGAG-3’; TFF2-R: 5’-CGAGCTAGAGTCAAAGAG-3’;
(§7) Spdef-F: 5’-GGAGGAGACTCTTCTGAAG-3’; Spdef-R: 5’-
(§8) -3’. For human genes, hPCNA-F: 5’-
(§9) CAGCGGTAGGTGTCGAAGC-3’; hTFF2-F: 5’-[…]-
(§10) 3’; hTTF2-R: 5’-[…]-3’; hMuc5ac-F: 5’-
(§11) GCGCACAGAGGATGACAGT-3’; hATP4b-F: 5’-[…]-
(§12) 3’; hATP4b-R: 5’-[…]-3’; hGastrin-F: 5’-
GCCCCTGTACCTAAGGGTG-3’; hAxin2-F: 5’-
RNA sequencing: The gastric muscle layer was removed under the stereoscope and the […]

[3] = system: liver and kidney of AG model mice; assay: Body weight and liver/kidney histology in AG model mice; format: in vivo, mouse; details: PEEPA-P5; H&E, representative of three mice
Experimental: (§13) For establishment of a mouse model of atrophic gastritis, normal mice had free access to water containing N‐methyl‐N‐nitro‐N‐nitrosoguanidine (MNNG, […]). Moreover, the mice were given 400 µL of ranitidine (8 mg mL^−1) in solution at a dose of 150 mg kg^−1 daily. After 20 weeks, the mice were euthanized and examined.
(§14) Periplaneta americana insects were cultivated in an industrialized facility and the ethanol extract of (PEEPA) was prepared with a standardized method, which was dissolved in the vehicle containing water, 15% glycerol and 0.2% potassium sorbate. PEEPA‐derived peptides (PEEPA‐P5) were dissolved to 500 ng mL^−1 in water for in vitro experiments and to 1 mg mL^−1 for in vivo experiments. Mice were administrated with PEEPA, PEEPA‐P5, or vehicle through oral gavage daily for 2 or 4 weeks.

[4] = system: AG model mice; assay: AG mouse model (MNNG + ranitidine): histology and histopathology scoring; format: in vivo; details: comparison Moludan, Sijunzi decoction, berberine
Experimental: as §13, §14
For murine gastritis samples, histologic scoring was blindly done following standard criteria. In brief, the oxyntic atrophy scoring was determined by the absence of parietal and chief cells in mucosa and the gastritis histology index has three categories, inflammation, epithelial defects, and oxyntic atrophy. A larger score represents a more severe gastritis.

[5] = cited from earlier work
Source text: Herein, by analyzing AG model mice and patient samples with genetic tracing, organoid cultures, and RNA‐seq, we uncovered GSC defects as a critical AG pathogenic factor, associated with decreased signaling of EGF, an important GSC niche molecule. […] We wanted to test their therapeutic effect on AG model mice generated with n‐methyl‐n‐nitro‐n‐nitrosoguanidine (MNNG) and ranitidine (Figure 1A).

[6] = system: gastric organoids; assay: Inhibition of PEEPA-induced organoid growth by pathway inhibitors; format: cell-based, mouse
Experimental: For JAK‐Stat, MEK1 and EGFR inhibition, organoid cultures were respectively treated with Ruxotilinib (15 µM, Selleck, #s1039), U0126 (20 µM, Selleck, #s1102) and Afatinib (1 µM, Selleck, #s1011). The inhibitor was prepared following the manufacturer's instruction.

[7] = system: EGFR-Stat1 and EGFR-ERK signaling in AG organoids; assay: Western blot of EGFR signaling in AG patient-derived gastric organoids; format: cell-based, human; details: organoids from AG patients
Experimental: (§15) The gastric antrum of mice was harvested and the middle part was cut open. After cleaning in PBS containing 1% pencillin‐streptomycin (PS) for several times, the food residue and other impurities were completely removed. The gastric gland epithelial layer was separated from the muscle layer with forceps under the stereoscope. The epithelial layer was cut into 2.5 mm long fragments, which were digested in 2.5 mM EDTA/DPBS at 4 °C for 1 h. The gland fragments were filtered through a 70 µm strainer (Thermo Fisher), washed with cold DPBS buffer, and centrifuged at 1000 rpm for 5 min. Afterward, the gland sediments were suspended in growth factor reduced phenol‐free Matrigel (Corning) and seeded into 48‐well plate. […] At different time points (Day 1, 3, 5, and 7), the organoids were observed under inverted microscope, and the organ diameter and bud numbers were measured to determine the levels of cell proliferation. […]
(§16) results were visualized and quantified using the FluoChem M system (ProteinSimple).
(§17) Cell culture and cell viability assay: Human gastric normal epithelial cell line GES-1 was cultured in DMEM medium containing 10% fetal bovine serum and 1% pencillin-streptomycin at 37℃ with 5% CO2. […] After 3 days, substrate tetrazolium salt was added to each sample and incubated at 37℃ for 2 hrs and the absorbance at 450 nm was measured using BioTeck. […]

[8] = system: EGFR-Stat1 and EGFR-ERK signaling in NAG organoids; assay: Western blot of EGFR signaling in NAG patient-derived gastric organoids; format: cell-based, human; details: organoids from NAG patients
Experimental: as §15, §16, §17

[9] = no reference given; cited from earlier work
Source text: Moreover, PEEPA‐P5 has unique properties compared to EGF. […] Third, PEEPA‐induced ERK and Stat1 activation is much slower.

[10] = system: EGFR, ERKs, Stat1, Akt1, Stat3 in GES-1 cells; assay: Western blot of EGFR downstream signaling in GES-1 cells; format: cell-based, human; details: EGF 0.4 µM
Experimental: Western Blot: Tissue proteins were isolated using T-PER Tissue Protein Extraction Reagent (Thermo Fisher, #78510). Proteins of cultured cells were extracted using RIPA lysis buffer supplemented with 1 mM PMSF, […] pepstatin, leupeptin, and aprotonin. Equal amounts of total proteins were subjected to SDS-PAGE and transferred to PVDF membrane (Millipore). The primary antibodies include: p-Stat1 […]
as §16
Cell culture and cell viability assay: Human gastric normal epithelial cell line GES-1 was cultured in DMEM medium containing 10% fetal bovine serum and 1% pencillin- […]
streptomycin at 37℃ with 5% CO2. […]
as §1, §2, §3, §4, §5, §6, §7, §8, §9, §10, §11, §12
GCCCCTGTACCTAAGGGTG-3’; hAxin2-F: 5’- […]

PAAEPVPLVKQD [PEEPA-P5]
stability in the acidic environment of the stomach ([1]; inferred from retention of P5-fluorescein in mouse stomach): relatively stable in the acidic environment of the stomach | retention time in the stomach ([1]; mouse, oral gavage, measured using P5-fluorescein (PEEPA-P5-FITC), fluorescence at different time points): 3.09 h | IC50 [2]: 284 µM | toxicity towards GES-1 cells ([2]; CCK-8, 3 days): low cell toxicity | effect on liver or kidney [3]: little effect on the kidney or liver structure; also recorded: no obvious effect on the liver or kidney

COc1ccc2cc3[n+](cc2c1OC)CCc1cc2c(cc1-3)OCO2 [berberine, reference compound]
restoration of gland structure, gastritis histology index and oxyntic atrophic score (compared with PEEPA) [4]: only PEEPA restored the gastric gland structure | reported therapeutic effects on AG ([5]; ref [16]): therapeutic effects on AG

N#CC[C@H](C1CCCC1)n1cc(-c2ncnc3[nH]ccc23)cn1 [Ruxo, ruxolitinib]
effect on PEEPA-induced organoid growth and differentiation ([6]; Jak inhibitor Ruxo 15 µM, n=6 (growth), n=3 (qPCR)): impeded PEEPA‐induced organoid growth and differentiation | expression of differentiation markers in gastric organoids ([6]; Ruxo, qPCR, mean ± SD, n=3): suppressed the expression of differentiation markers

EGF: GSC niche molecule; EGF protein used as comparison
sensitivity to EGF, AG organoids [7]: organoids from AG patients are insensitive | sensitivity to EGF, NAG organoids [8]: organoids from NAG patients are highly sensitive to EGF | stability in acidic stomach environment [9]: instability of EGF in acidic stomach environment | downstream signaling activated by EGF [10]: activates ERK, Akt1, and Stat1/3 signaling | secretion of defensin 3 ([5]; ref [15]): promotes secretion of defensin 3

N#CC(=C(/N)Sc1ccccc1N)/C(C#N)=C(/N)Sc1ccccc1N [U0126]
effect on PEEPA-induced organoid growth ([6]; ERK inhibitor U0126 20 µM, mean ± SD, n=3): suppressed PEEPA‐induced organoid growth

CN(C)C/C=C/C(=O)Nc1cc2c(Nc3ccc(F)c(Cl)c3)ncnc2cc1O[C@H]1CCOC1 [afatinib]
effect on PEEPA-induced organoid growth ([6]; EGFR inhibitor afatinib 1 µM, mean ± SD, n=3): blocked the pro‐growth effect of PEEPA on gastric organoids
